From the supplement of paper PMC5908809

Tests used:
[1] = tested on: normal NK cells expanded with K562-aAPC; experiment: percent inhibition of viability; higher = more inhibition; conditions: 72 h, IL-2 2.5 ng/mL
Description: (§1)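 Drug sensitivity and resistance testing on K562-aAPC-expanded normal NK cells: 5 concentrations (10-fold steps over a 10,000-fold range), 72 h at 37 °C, viability by CellTiter-Glo normalised to DMSO and benzethonium chloride controls; DSS from the fitted curve.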

DERL-7 (IL-2 2.5 ng/mL) [2] = experiment: as above; conditions: 72 h
IMC-1 (IL-2 20 ng/mL) [3] = experiment: as above; conditions: 72 h
KAI3 (IL-2 2.5 ng/mL) [4] = experiment: as above; conditions: 72 h
KHYG-1 (IL-2 2.5 ng/mL) [5] = experiment: as above; conditions: 72 h
NK-92 (IL-2 2.5 ng/mL) [6] = experiment: as above; conditions: 72 h
NK-YS (IL-2 2.5 ng/mL) [7] = experiment: as above; conditions: 72 h
NKL (IL-2 2.5 ng/mL) [8] = experiment: as above; conditions: 72 h
SNK-6 (IL-2 2.5 ng/mL) [9] = experiment: as above; conditions: 72 h
YT (IL-2 2.5 ng/mL) [10] = experiment: as above; conditions: 72 h
[11] = tested on: normal primary NK cells, pool 1 (3 donors) (IL-2 2.5 ng/mL); experiment: as above; conditions: 72 h
[12] = tested on: normal primary NK cells, pool 1 (3 donors), resting (IL-2 0 ng/mL); experiment: as above; conditions: 72 h
[13] = tested on: normal primary NK cells, pool 2 (3 donors) (IL-2 2.5 ng/mL); experiment: as above; conditions: 72 h
[14] = tested on: normal primary NK cells, pool 3 (3 donors) (IL-2 2.5 ng/mL); experiment: as above; conditions: 72 h
[15] = tested on: normal NK cells expanded with K562-aAPC; experiment: drug sensitivity score (DSS) (DSS units); higher = more sensitive; extreme values may be limits of the assay; conditions: 72 h; IL-2 2.5 ng/mL
Description: as §1

DERL-7 (IL-2 2.5 ng/mL) [16] = experiment: as above; conditions: 72 h
IMC-1 (IL-2 20 ng/mL) [17] = experiment: as above; conditions: 72 h
KAI3 (IL-2 2.5 ng/mL) [18] = experiment: as above; conditions: 72 h
KHYG-1 (IL-2 2.5 ng/mL) [19] = experiment: as above; conditions: 72 h
NK-92 (IL-2 2.5 ng/mL) [20] = experiment: as above; conditions: 72 h
NK-YS (IL-2 2.5 ng/mL) [21] = experiment: as above; conditions: 72 h
NKL (IL-2 2.5 ng/mL) [22] = experiment: as above; conditions: 72 h
SNK-6 (IL-2 2.5 ng/mL) [23] = experiment: as above; conditions: 72 h
YT (IL-2 2.5 ng/mL) [24] = experiment: as above; conditions: 72 h
[25] = tested on: normal primary NK cells, pool 1 (3 donors) (IL-2 2.5 ng/mL); experiment: as above; conditions: 72 h
[26] = tested on: normal primary NK cells, pool 1 (3 donors), resting (IL-2 0 ng/mL); experiment: as above; conditions: 72 h
[27] = tested on: normal primary NK cells, pool 2 (3 donors) (IL-2 2.5 ng/mL); experiment: as above; conditions: 72 h
[28] = tested on: normal primary NK cells, pool 3 (3 donors) (IL-2 2.5 ng/mL); experiment: as above; conditions: 72 h

CCC/C=C/C=C/C(=O)O[C@H]1/C(=C/C(=O)OC)C[C@H]2C[C@H]([C@@H](C)O)OC(=O)C[C@H](O)C[C@@H]3C[C@H](OC(C)=O)C(C)(C)[C@](O)(C[C@@H]4C/C(=C/C(=O)OC)C[C@H](/C=C/C(C)(C)[C@]1(O)O2)O4)O3 [Bryostatin 1] (max concentration tested 100 nM)
percent inhibition of viability [%]
Conditions | 0.01 nM | 0.1 nM | 1 nM | 10 nM | 100 nM
DERL-7 (IL-2 2.5 ng/mL) [2] | -2.14 | -19.4 | 24.4 | 20 | 35.2
IMC-1 (IL-2 20 ng/mL) [3] | -3.95 | 3.27 | 75.6 | 68.3 | 62.7
KAI3 (IL-2 2.5 ng/mL) [4] | 0.24 | 5.23 | 4.64 | 21.7 | -6.8
KHYG-1 (IL-2 2.5 ng/mL) [5] | 1.17 | 35.4 | 102 | 106 | 99.2
NK-92 (IL-2 2.5 ng/mL) [6] | -10.7 | 25.5 | 87.5 | 103 | 95.4
NK-YS (IL-2 2.5 ng/mL) [7] | -5.4 | -9.97 | -7.91 | 1.59 | -4.21
NKL (IL-2 2.5 ng/mL) [8] | -18.8 | -58.9 | -74.9 | -67.5 | -81.5
SNK-6 (IL-2 2.5 ng/mL) [9] | 13.4 | 39.5 | 64.4 | 35.5 | 18
YT (IL-2 2.5 ng/mL) [10] | 2.73 | -2.33 | -3.22 | 1.88 | 1.24
[1] | -6.34 | -41.9 | -55.2 | -31.9 | -30.3
[11] | -10.4 | -18.6 | -14.9 | -23.1 | -10.7
[12] | -14.3 | 14.4 | -0.07 | -6.68 | 5.47
[13] | -15.1 | -25.1 | -48.2 | -38 | -37.6
[14] | -5.42 | -30.1 | -40.2 | -35 | -20.7

Conditions | drug sensitivity score
DERL-7 (IL-2 2.5 ng/mL) [16] | 8.96
IMC-1 (IL-2 20 ng/mL) [17] | 23.9
KAI3 (IL-2 2.5 ng/mL) [18] | 0
KHYG-1 (IL-2 2.5 ng/mL) [19] | 35.4
NK-92 (IL-2 2.5 ng/mL) [20] | 31.7
NK-YS (IL-2 2.5 ng/mL) [21] | 0
NKL (IL-2 2.5 ng/mL) [22] | 0
SNK-6 (IL-2 2.5 ng/mL) [23] | 14.9
YT (IL-2 2.5 ng/mL) [24] | 0
[15] | 0
[25] | 0
[26] | 0
[27] | 0
[28] | 0

CO[C@H]1C[C@@H]2CC[C@@H](C)[C@@](O)(O2)C(=O)C(=O)N2CCCC[C@H]2C(=O)O[C@H]([C@H](C)C[C@@H]2CC[C@@H](O)[C@H](OC)C2)CC(=O)[C@H](C)/C=C(\C)[C@@H](O)[C@@H](OC)C(=O)[C@H](C)C[C@H](C)/C=C/C=C/C=C/1C [Sirolimus] (max concentration tested 100 nM)
percent inhibition of viability [%]
Conditions | 0.01 nM | 0.1 nM | 1 nM | 10 nM | 100 nM
DERL-7 (IL-2 2.5 ng/mL) [2] | 1.91 | 1.51 | 7.44 | 38.3 | 55.7
IMC-1 (IL-2 20 ng/mL) [3] | -3.21 | 1.18 | -3.68 | -15.7 | -35.8
KAI3 (IL-2 2.5 ng/mL) [4] | -2.33 | -1.67 | 15.9 | 44.7 | 54.9
KHYG-1 (IL-2 2.5 ng/mL) [5] | -2.67 | 2.99 | 5.43 | 47.1 | 73.8
NK-92 (IL-2 2.5 ng/mL) [6] | -4.22 | 6.09 | 10.4 | 22 | 41.1
NK-YS (IL-2 2.5 ng/mL) [7] | -0.35 | 1.64 | 29.4 | 54.6 | 58.5
NKL (IL-2 2.5 ng/mL) [8] | 10.2 | 24.2 | 45.2 | 58.8 | 68.7
SNK-6 (IL-2 2.5 ng/mL) [9] | 7.11 | 11.7 | 26.8 | 58 | 53.6
YT (IL-2 2.5 ng/mL) [10] | -0.6 | 3.68 | 8.62 | 48.9 | 50
[1] | -3.63 | -1.36 | 3.81 | 13.8 | 18.7
[11] | 0.77 | -8.98 | 3.92 | 5.36 | 11.1
[12] | 1.62 | -12 | 3.7 | 1.9 | 13.7
[13] | -8.36 | 2 | 15.3 | 16.1 | 24.9
[14] | -9.48 | -6.09 | 3.92 | 6.87 | 10.3

Conditions | drug sensitivity score
DERL-7 (IL-2 2.5 ng/mL) [16] | 8.02
IMC-1 (IL-2 20 ng/mL) [17] | 0
KAI3 (IL-2 2.5 ng/mL) [18] | 10
KHYG-1 (IL-2 2.5 ng/mL) [19] | 9.94
NK-92 (IL-2 2.5 ng/mL) [20] | 4.93
NK-YS (IL-2 2.5 ng/mL) [21] | 13.8
NKL (IL-2 2.5 ng/mL) [22] | 19.3
SNK-6 (IL-2 2.5 ng/mL) [23] | 13.6
YT (IL-2 2.5 ng/mL) [24] | 10.3
[15] | 1.68
[25] | 0.01
[26] | 0.29
[27] | 3.82
[28] | 0
